From article PMC3139667, “A Screen against Leishmania Intracellular Amastigotes: Comparison to a Promastigote Screen and Identification of a Host Cell-Specific Hit” (PLoS Neglected Tropical Diseases, 2011) come the findings set out here.

The test system of one data set is THP-1. The data set can be described thus: Host cell toxicity: THP-1 host nuclei counts in the image-based assay. Particulars: for GI50: read-out: GI50 THP-1; for Selectivity: ratio between parasite GI50 and THP-1 GI50. As to the method:
(§1) Sterile, black, 96-well, clear bottom plates (Greiner Bio-One) were seeded with exponentially growing THP-1 (5×10^5cells/ml). THP-1 were treated with 0.1 µM phorbol myristate acetate (PMA, Sigma) at 37°C for 48 h to achieve differentiation into adherent, non-dividing macrophages. Maturation of THP-1 cells towards monocyte-macrophage like cells is essential to avoid parasitized cells being overgrown by replicating cells. After activation by PMA, cells were washed and incubated with complete RPMI medium containing stationary phase L. donovani promastigotes at a macrophage/promastigote ratio of 1/15. After 4 h incubation at 37°C, non-internalized promastigotes were removed by 2–3 successive washes with RPMI containing 5% FBS and 5% horse serum. Test compounds (10 µM), positive control (2 µM amphotericin B) or negative control (1% DMSO) were then added to the cultures using a Biomek FXp liquid handler (Beckman Coulter). Cultures were incubated at 37°C for 72 h. Cells were then washed with phosphate-buffered saline (PBS), fixed for 30 minutes with 4% formaldehyde, rinsed again with PBS, stained for 2 h with 4′,6′-diamidino-2-phenylindole (DAPI 300 nM) and finally washed with PBS. […] Images were acquired with an INCell Analyzer 1000 automated epi-fluorescent microscope (G.E. Healthcare). The excitation and emission filters used to detect DAPI were 350/50 nm and 460/40 nm respectively. Eight image fields were acquired per well with a 20X objective. The proprietary INCell Developer Toolbox 1.7 software was used for image analysis. Segmentation parameters were set to identify host nuclei with a minimum area of 250 µm^2 and parasite kinetoplast with an average area of 1 µm^2. The intensity of parasite nucleus was too low to be detected with a 20X objective. A border, representing the boundary of the cell, was drawn around the nucleus (total area between 700 and 2000 µm^2). Only parasites found within this area were included in the calculation to eliminate extracellular parasites. False positive parasite detection in the nucleus was also excluded from the calculation. Host cell nuclei and parasite kinetoplasts were counted and the ratio of parasites DNA to host nuclei was selected as the measurement output. Percentage inhibition of parasite growth was calculated as [1-(P/hcx-P/hc^+)/(P/hc^−-P/hc^+)]*100 where P/hcx, P/hc^+ and P/hc^− are parasite per host cell ratio for every well, positive control (amphotericin B) and negative control (DMSO) respectively. Calculation of Z' factor and GI50 curve fitting were carried out as described above.

Data set [1] relates to L. donovani intracellular amastigotes. The data set can be described thus: Intracellular amastigote high-throughput image-based assay in infected THP-1 macrophages. The class given is cell-based, Leishmania donovani. Conditions: for GI50: read-out: GI50 Intracellular amastigote. How it is done:
as §1

In data set [2] the test system is L. donovani promastigotes. In words: Promastigote high-throughput ATP-bioluminescence assay. The class given is cell-based, Leishmania donovani. Conditions: for GI50: read-out: GI50 Promastigote. As to the method: L. donovani promastigotes from an exponentially growing culture were diluted to 10^6/ml in RPMI containing 10% FBS and 10% BHT. The diluted culture (99 µl/well) was dispensed in sterile 96-well flat white opaque assay plates (Greiner Bio-One) using a WellMate multichannel dispenser (Matrix). 1 µl of 1 mM test compound dissolved in DMSO was added to the plates for a final concentration of 10 µM compound and 1% DMSO. Amphotericin B was added as a positive control (final concentration 2 µM, 1% DMSO) and as a negative control, 1 µl DMSO was added (1% final concentration). Compounds and controls were added to the assay plate with the robotic dispenser Biomek FXp liquid handler (Beckman Coulter). Promastigotes were incubated with the compounds for 72 h at 27°C. The parasites were then lysed by adding 50 µl of CellTiter-Glo (Promega) and placed on an orbital shaker for 5 min at room temperature. After lysis, the resulting ATP-bioluminescence was measured using the Analyst HT plate reader (Molecular Devices). Percentage inhibition of parasite growth was calculated for each well as [1-(RLUx-RLU^+)/(RLU^--RLU^+)]*100 where RLUx, RLU^+ and RLU^- are respectively the Relative Light Units for each well, positive (amphotericin B) and negative (DMSO) controls. A screening window coefficient, denoted Z' factor, was used to evaluate the performance of the assay. The Z' factor, calculated as 1-(3σc++3σc−)/(µc+−µc−) where σc+, σc−, µc+ and µc− are respectively the standard deviation and mean values of positive and negative controls, is reflective of the assay signal dynamic range and the data variation associated with signal measurement. […] GI50 curve fitting was carried out using GraphPad Prism 4 Software (GraphPad Software Inc., San Diego, CA).

Data set [3] deals with L. donovani axenic amastigotes. The data set can be described thus: Dose response study against axenic amastigotes (CellTiter-Glo). In kind it is cell-based, Leishmania donovani. Conditions: for GI50: read-out: GI50 Axenic amastigote. How it is done: L. donovani axenic amastigotes (5×10^5 cells/ml in axenic amastigote media) were dispensed in sterile 96-well flat white opaque assay plates (Greiner Bio-One) using a WellMate multichannel dispenser (Matrix). […] 1% DMSO and amphotericin B (2 µM, 1% DMSO final concentration) were added as negative and positive controls respectively. Axenic amastigotes were incubated with the compounds for 72 h at 37°C with 5% CO2. Parasite viability was then measured using CellTiter-Glo as described above.

[4] abbreviates: Leishmania donovani, THP-1, 72 h.
[5] abbreviates: ratio between promastigote GI50 and intracellular amastigote GI50, >2 more active against intracellular amastigote, <0.4 more active against promastigotes.
Setting [6] is: PMA-differentiated infected THP-1, 72 h, host nuclei count.
[7] abbreviates: L. donovani in THP-1, 72 h, parasites per host cell.
Where [8] appears, read: Leishmania donovani, THP-1, 72 h, L. donovani in THP-1, 72 h, parasites per host cell.
The mark [9] stands for this setting: Leishmania donovani, 72 h at 27°C, CellTiter-Glo.
The mark [10] stands for this setting: Leishmania donovani, 72 h at 37°C, CellTiter-Glo.

“Also recorded” adds a separate entry of the source. Like-named read-outs stand apart in the source and are kept apart here. Where only a bound is given, the exact number is not on record here.

In the case of `C[C@@H]1C[C@@H]([C@H](O)CC2CC(=O)NC(=O)C2)C(=O)[C@@H](C)C1` [Cycloheximide], the concentration for 50% growth inhibition (GI50) (commonly the concentration at which growth is held to half of that of the control) in the data set on THP-1 (Homo sapiens, THP-1, 72 h) stood at 21 µM; in data set [1] (setting [4]) it was 1.15 µM; in data set [2] (Leishmania donovani, 72 h), 2.95 µM; in data set [3] (Leishmania donovani, 72 h), 0.39 µM. Further, the Selectivity in the data set with THP-1 was 18.13. Moreover, the Specificity in data set [1] (setting [5]) was 2.55.
With `COc1cc2nc(N3CCN(C(=O)c4ccco4)CC3)nc(N)c2cc1OC.Cl` [Prazocin Hydrochloride], in the data set with THP-1, the Selectivity is 3.46. Moreover, the GI50 in the data set on THP-1 (setting [6]) was 23.3 µM; in data set [1] (setting [7]) it was 6.73 µM; in data set [2] (72 h at 27°C, CellTiter-Glo), 16.7 µM; in data set [3] (72 h at 37°C, CellTiter-Glo), more than 50 µM. Besides, in data set [1], the Specificity stood at 2.48.
Take `CCN(CC)c1ccc(C(=C2C=CC(=[N+](CC)CC)C=C2)c2ccccc2)cc1` [Brilliant green]: the GI50 in the data set on THP-1 (Homo sapiens, THP-1, 72 h) came to 1.64 µM; in data set [1] (setting [8]), 6 µM; in data set [2] (setting [9]), 0.1 µM; in data set [3] (setting [10]) it was 0.03 µM. Besides, the Selectivity in the data set with THP-1 is recorded as 15.88. Also, the Specificity in data set [1] (setting [5]) was 0.02.
For the compound `CCOc1ccccc1OCCN[C@H](C)Cc1ccc(OC)c(S(N)(=O)=O)c1` [Tamsulosin], the GI50 in the data set on THP-1 (Homo sapiens, THP-1, 72 h) is 28 µM; in data set [1] (setting [8]), 6.3 µM; in data set [2] (setting [9]), 20 µM; in data set [3] (setting [10]) it was more than 50 µM. Also, the Selectivity in the data set on THP-1 was 4.43. For the same compound, the Specificity in data set [1] (setting [5]) came out at 3.17.
In the case of `Clc1ccccc1C(c1ccccc1)(c1ccccc1)n1ccnc1` [Clotrimazole], the GI50 with THP-1 (Homo sapiens, THP-1, 72 h) was more than 16.5 µM; in data set [1] (setting [8]), 1.08 µM; in data set [2] (setting [9]), 12.9 µM; in data set [3] (setting [10]), 4.56 µM. Besides, the Selectivity in the data set with THP-1 is reported as 15.32. Besides, the Specificity in data set [1] (setting [5]) turned out to be 11.92.
For the compound `COCc1c(C(C)C)nc(C(C)C)c(/C=C/[C@@H](O)C[C@@H](O)CC(=O)O)c1-c1ccc(F)cc1` [Cerivastatin], the GI50 in the data set on THP-1 (Homo sapiens, THP-1, 72 h) was 7.15 µM; in data set [1] (setting [8]), more than 50 µM; in data set [2] (setting [9]), 10.8 µM; in data set [3] (setting [10]), 0.02 µM. The Selectivity in the data set on THP-1 is 0.66. For the same compound, in data set [1] (setting [5]), the Specificity was determined as 0.22.
Take `Oc1c(Cl)cc(Cl)c(Cl)c1Cc1c(O)c(Cl)cc(Cl)c1Cl` [Hexachlorophene]: the GI50 in the data set with THP-1 (Homo sapiens, THP-1, 72 h) amounted to 16.5 µM; in data set [1] (setting [4]) it was 4.54 µM; in data set [2] (Leishmania donovani, 72 h) it was 15.9 µM; in data set [3] (Leishmania donovani, 72 h) it was 14.8 µM. Further, in data set [1] (setting [5]), the Specificity was 3.49.
With `CN1CCc2cccc3c2[C@H]1Cc1ccc(O)c(O)c1-3` [R(-)-Apomorphine], the Selectivity in the data set with THP-1 came out at 6.1. In addition, the GI50 in the data set with THP-1 (setting [6]) was more than 16.5 µM; in data set [1] (setting [7]), 2.7 µM; in data set [2] (72 h at 27°C, CellTiter-Glo) it was 38.1 µM; in data set [3] (72 h at 37°C, CellTiter-Glo), 5.2 µM. In data set [1], the Specificity was determined as 14.12.
With `C=CCN1CC[C@]23c4c5ccc(O)c4O[C@H]2C(=O)CC[C@@]3(O)[C@H]1C5` [naloxone], the “Toxicity to the host macrophage (in words)” value in the data set with THP-1 (dose response, up to 50 µM) is given as “not toxic”. Further, the “Primary screen against intracellular amastigotes, hit selection” value in data set [1] (10 µM, duplicates, hit = 60% parasite growth inhibition and not more than 20% reduction in THP-1 numbers) is “not selected as a hit”. Moreover, the “Activity against intracellular amastigotes (in words)” value in data set [1] (dose response, up to 50 µM) was “inactive; also recorded: did not show any activity”. Further, the “Primary screen against promastigotes, hit selection” value in data set [2] (10 µM, hit = 60% parasite growth inhibition) is “not selected as a hit”. Moreover, in data set [2] (dose response, up to 50 µM), the “Activity against promastigotes (in words)” value is “inactive”. In addition, the “Activity against axenic amastigotes (in words)” value in data set [3] (dose response, up to 50 µM) is “inactive”.
On to `COc1cc2nc(N3CCN(C(=O)C4COc5ccccc5O4)CC3)nc(N)c2cc1OC` (centres unmarked) [Doxazocin], for which, in the data set with THP-1, the Selectivity was found to be 3.32. Besides, the GI50 is more than 16.5 µM in the data set on THP-1 (setting [6]); 5 µM in data set [1] (setting [7]); 8.45 µM in data set [2] (72 h at 27°C, CellTiter-Glo); more than 16.5 µM in data set [3] (72 h at 37°C, CellTiter-Glo). Besides, the Specificity in data set [1] (setting [5]) was 1.69.
As for `Nc1c2ccccc2nc2ccccc12` [Aminacrine], the GI50 is 13 µM in the data set on THP-1 (Homo sapiens, THP-1, 72 h); 1.9 µM in data set [1] (setting [8]); 8.96 µM in data set [2] (setting [9]); more than 16.5 µM in data set [3] (setting [10]). Also, the Selectivity in the data set on THP-1 amounted to 6.82. Also, the Specificity in data set [1] (setting [5]) is 4.71.
As for `Clc1ccc(COC(Cn2ccnc2)c2ccc(Cl)cc2Cl)c(Cl)c1` (centres unmarked) [Miconazole], the GI50 with THP-1 (Homo sapiens, THP-1, 72 h) was more than 16.5 µM; in data set [1] (setting [8]), 15.4 µM; in data set [2] (setting [9]), 7.48 µM; in data set [3] (setting [10]), 4.73 µM. In addition, in the data set with THP-1, the Selectivity was found to be 1.07. The Specificity in data set [1] (setting [5]) stood at 0.48.
`CCN(CCCCOC(=O)c1ccc(OC)c(OC)c1)C(C)Cc1ccc(OC)cc1` (centres unmarked) [Mebeverine]: the GI50 was more than 50 µM in the data set on THP-1 (Homo sapiens, THP-1, 72 h); 8.5 µM in data set [1] (setting [8]); 6.91 µM in data set [2] (setting [9]); 2.36 µM in data set [3] (setting [10]). The Selectivity in the data set with THP-1 amounted to 5.88. In addition, in data set [1] (setting [5]), the Specificity turned out to be 0.81.
